Measured values taken from ChEMBL document CHEMBL1909294, “Translating clinical findings into knowledge in drug safety evaluation--drug induced liver injury prediction system (DILIps)” (PLoS Comput Biol, 2011).

Experiments:
[1] = tested on: Hepatotoxicity;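 on HepSE Combined Scores: combined hepatic side effect score as listed in the training data of the Drug Induced Liver Injury Prediction System (DILIps)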;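 on HepSE bilirubinemia: bilirubinemia hepatic side effect score drawn from the DILIps training data, a prediction system for drug-induced liver injury; call rule not given here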;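 on HepSE cholecystitis: Cholecystitis-related hepatic side effect score drawn from the DILIps (drug-induced liver injury prediction) training data set; call rule not given here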;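 on HepSE cholelithiasis: hepatic side effect score for cholelithiasis, drawn from the DILIps training data for predicting drug-induced liver injury; call rule not given here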; on HepSE hepatic failure: call rule not given here;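 on HepSE hepatomegaly: hepatic side effect score for hepatomegaly, taken from the training set of the DILIps drug-induced liver injury prediction system; call rule not given here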; on HepSE liver disease: call rule not given here
[2] = tested on: Hepatotoxicity; remark: listed apart in the source;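 on HepSE Combined Scores: combined hepatic side effect score as listed in the training data of the Drug Induced Liver Injury Prediction System (DILIps)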;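 on HepSE bilirubinemia: bilirubinemia hepatic side effect score drawn from the DILIps training data, a prediction system for drug-induced liver injury; call rule not given here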;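 on HepSE cholecystitis: Cholecystitis-related hepatic side effect score drawn from the DILIps (drug-induced liver injury prediction) training data set; call rule not given here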;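 on HepSE cholelithiasis: hepatic side effect score for cholelithiasis, drawn from the DILIps training data for predicting drug-induced liver injury; call rule not given here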; on HepSE hepatic failure: call rule not given here;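 on HepSE hepatomegaly: hepatic side effect score for hepatomegaly, taken from the training set of the DILIps drug-induced liver injury prediction system; call rule not given here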; on HepSE liver disease: call rule not given here
[3] = tested on: Hepatotoxicity; remark: listed apart in the source;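 on HepSE Combined Scores: combined hepatic side effect score as listed in the training data of the Drug Induced Liver Injury Prediction System (DILIps)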;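 on HepSE bilirubinemia: bilirubinemia hepatic side effect score drawn from the DILIps training data, a prediction system for drug-induced liver injury; call rule not given here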;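 on HepSE cholecystitis: Cholecystitis-related hepatic side effect score drawn from the DILIps (drug-induced liver injury prediction) training data set; call rule not given here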;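 on HepSE cholelithiasis: hepatic side effect score for cholelithiasis, drawn from the DILIps training data for predicting drug-induced liver injury; call rule not given here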; on HepSE hepatic failure: call rule not given here;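 on HepSE hepatomegaly: hepatic side effect score for hepatomegaly, taken from the training set of the DILIps drug-induced liver injury prediction system; call rule not given here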; on HepSE liver disease: call rule not given here
[4] = tested on: Hepatotoxicity; remark: listed apart in the source;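 on HepSE Combined Scores: combined hepatic side effect score as listed in the training data of the Drug Induced Liver Injury Prediction System (DILIps)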;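 on HepSE bilirubinemia: bilirubinemia hepatic side effect score drawn from the DILIps training data, a prediction system for drug-induced liver injury; call rule not given here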;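 on HepSE cholecystitis: Cholecystitis-related hepatic side effect score drawn from the DILIps (drug-induced liver injury prediction) training data set; call rule not given here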;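 on HepSE cholelithiasis: hepatic side effect score for cholelithiasis, drawn from the DILIps training data for predicting drug-induced liver injury; call rule not given here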; on HepSE hepatic failure: call rule not given here;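 on HepSE hepatomegaly: hepatic side effect score for hepatomegaly, taken from the training set of the DILIps drug-induced liver injury prediction system; call rule not given here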; on HepSE liver disease: call rule not given here
[5] = tested on: Hepatotoxicity; remark: listed apart in the source; on HepSE hepatic failure: call rule not given here; on HepSE liver disease: call rule not given here
[6] = tested on: Hepatotoxicity; remark: listed apart in the source; on HepSE hepatic failure: call rule not given here
[7] = tested on: Hepatotoxicity; remark: listed apart in the source
[8] = tested on: Hepatotoxicity; remark: listed apart in the source
[9] = tested on: Hepatotoxicity; remark: listed apart in the source
[10] = tested on: Hepatotoxicity; remark: listed apart in the source
[11] = tested on: Hepatotoxicity; remark: listed apart in the source
[12] = tested on: Hepatotoxicity; remark: listed apart in the source
[13] = tested on: Hepatotoxicity; remark: listed apart in the source
[14] = tested on: Hepatotoxicity; remark: listed apart in the source

| Structure (SMILES) | HepSE_hepatic failure [1] | HepSE_cholecystitis [2] | HepSE_cholelithiasis [3] | HepSE_bilirubinemia [4] | HepSE_hepatomegaly [5] | HepSE_Combined Scores [6] | HepSE_hepatitis [7] | HepSE_liver disease [8] | HepSE_jaundice [9] | HepSE_liver fatty [10] | HepSE_elevated liver function tests [11] | HepSE_cirrhosis [12] | HepSE_liver function tests abnormal [13] | HepSE_hepatic necrosis [14] | further results |
| --- | --- | --- | --- | --- | --- | --- | --- | --- | --- | --- | --- | --- | --- | --- | --- |
| CN(C)C(=O)C(CCN1CCC(O)(c2ccc(Cl)cc2)CC1)(c1ccccc1)c1ccccc1 [LOPERAMIDE] | 0 | 0 | 0 | 0 | 0 | 0 | 0 | 0 | 0 | 0 | 0 | 0 | 0 | 0 |  |
| N[C@@H](C(=O)N[C@@H]1C(=O)N2C(C(=O)O)=C(Cl)CC[C@H]12)c1ccccc1 [LORACARBEF ANHYDROUS] | 0 | 0 | 0 | 0 | 0 | 1 | 0 | 0 | 1 | 0 | 0 | 0 | 0 | 0 |  |
| O=C1Nc2ccc(Cl)cc2C(c2ccccc2Cl)=NC1O (stereo unspecified) [LORAZEPAM] | 0 | 0 | 0 | 0 | 0 | 2 | 0 | 0 | 1 | 0 | 0 | 0 | 1 | 0 |  |
| CCCCc1nc(Cl)c(CO)n1Cc1ccc(-c2ccccc2-c2nn[nH]n2)cc1 [LOSARTAN] | 0 | 0 | 0 | 0 | 0 | 2 | 1 | 0 | 1 | 0 | 0 | 0 | 0 | 0 |  |
| CN1CCN(C2=Nc3ccccc3Oc3ccc(Cl)cc32)CC1 [LOXAPINE] | 0 | 0 | 0 | 0 | 0 | 2 | 1 | 0 | 1 | 0 | 0 | 0 | 0 | 0 |  |
| CC(=O)O.NCc1ccc(S(N)(=O)=O)cc1 [MAFENIDE ACETATE] | 0 | 0 | 0 | 0 | 0 | 0 | 0 | 0 | 0 | 0 | 0 | 0 | 0 | 0 |  |
| CCOC(=O)CC(SP(=S)(OC)OC)C(=O)OCC (stereo unspecified) [MALATHION] | 0 | 0 | 0 | 0 | 0 | 0 | 0 | 0 | 0 | 0 | 0 | 0 | 0 | 0 |  |
| OC[C@@H](O)[C@@H](O)[C@H](O)[C@H](O)CO [MANNITOL] | 0 | 0 | 0 | 0 | 0 | 0 | 0 | 0 | 0 | 0 | 0 | 0 | 0 | 0 |  |
| CNCCCC12CCC(c3ccccc31)c1ccccc12 [MAPROTILINE] |  |  |  |  |  |  |  |  |  |  |  |  |  |  | HepSE_hepatic failure ([1]; Liver): 0; HepSE_cholecystitis ([2]; Liver): 0; HepSE_cholelithiasis ([3]; Liver): 0; HepSE_bilirubinemia ([4]; Liver): 0; HepSE_hepatomegaly ([5]; Liver): 0; HepSE_Combined Scores ([6]; Liver): 1; HepSE_hepatitis ([7]; Liver): 0; HepSE_liver disease ([8]; Liver): 0; HepSE_jaundice ([9]; Liver): 1; HepSE_liver fatty ([10]; Liver): 0; HepSE_elevated liver function tests ([11]; Liver): 0; HepSE_cirrhosis ([12]; Liver): 0; HepSE_liver function tests abnormal ([13]; Liver): 0; HepSE_hepatic necrosis ([14]; Liver): 0 |
